In the assay the target is NR1/NR2A (Homo sapiens (Human), UniProt Q05586+Q12879). The experiment in a line: FDSS Ca2+ influx inhibition assay in HEK293 cells expressing NR1/NR2A. Format: cell-based. The note with it: 3 μM glutamate, 3 μM glycine, 1 mM Ca2+. The method, boiled down: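 Fluo-8-loaded HEK293 NR1/NR2A cells preincubated 10 min with compound at 10 μM final (0.1% DMSO) in Ca2+/Mg2+-free HBSS with 20 mM HEPES. Stimulated with 3 μM glutamate, 3 μM glycine, 1 mM Ca2+; FDSS recording for 3 min, end/baseline fluorescence ratio compared with MK801.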
Sequence of NR1/NR2A (Q12879 23-1464, other chains not shown): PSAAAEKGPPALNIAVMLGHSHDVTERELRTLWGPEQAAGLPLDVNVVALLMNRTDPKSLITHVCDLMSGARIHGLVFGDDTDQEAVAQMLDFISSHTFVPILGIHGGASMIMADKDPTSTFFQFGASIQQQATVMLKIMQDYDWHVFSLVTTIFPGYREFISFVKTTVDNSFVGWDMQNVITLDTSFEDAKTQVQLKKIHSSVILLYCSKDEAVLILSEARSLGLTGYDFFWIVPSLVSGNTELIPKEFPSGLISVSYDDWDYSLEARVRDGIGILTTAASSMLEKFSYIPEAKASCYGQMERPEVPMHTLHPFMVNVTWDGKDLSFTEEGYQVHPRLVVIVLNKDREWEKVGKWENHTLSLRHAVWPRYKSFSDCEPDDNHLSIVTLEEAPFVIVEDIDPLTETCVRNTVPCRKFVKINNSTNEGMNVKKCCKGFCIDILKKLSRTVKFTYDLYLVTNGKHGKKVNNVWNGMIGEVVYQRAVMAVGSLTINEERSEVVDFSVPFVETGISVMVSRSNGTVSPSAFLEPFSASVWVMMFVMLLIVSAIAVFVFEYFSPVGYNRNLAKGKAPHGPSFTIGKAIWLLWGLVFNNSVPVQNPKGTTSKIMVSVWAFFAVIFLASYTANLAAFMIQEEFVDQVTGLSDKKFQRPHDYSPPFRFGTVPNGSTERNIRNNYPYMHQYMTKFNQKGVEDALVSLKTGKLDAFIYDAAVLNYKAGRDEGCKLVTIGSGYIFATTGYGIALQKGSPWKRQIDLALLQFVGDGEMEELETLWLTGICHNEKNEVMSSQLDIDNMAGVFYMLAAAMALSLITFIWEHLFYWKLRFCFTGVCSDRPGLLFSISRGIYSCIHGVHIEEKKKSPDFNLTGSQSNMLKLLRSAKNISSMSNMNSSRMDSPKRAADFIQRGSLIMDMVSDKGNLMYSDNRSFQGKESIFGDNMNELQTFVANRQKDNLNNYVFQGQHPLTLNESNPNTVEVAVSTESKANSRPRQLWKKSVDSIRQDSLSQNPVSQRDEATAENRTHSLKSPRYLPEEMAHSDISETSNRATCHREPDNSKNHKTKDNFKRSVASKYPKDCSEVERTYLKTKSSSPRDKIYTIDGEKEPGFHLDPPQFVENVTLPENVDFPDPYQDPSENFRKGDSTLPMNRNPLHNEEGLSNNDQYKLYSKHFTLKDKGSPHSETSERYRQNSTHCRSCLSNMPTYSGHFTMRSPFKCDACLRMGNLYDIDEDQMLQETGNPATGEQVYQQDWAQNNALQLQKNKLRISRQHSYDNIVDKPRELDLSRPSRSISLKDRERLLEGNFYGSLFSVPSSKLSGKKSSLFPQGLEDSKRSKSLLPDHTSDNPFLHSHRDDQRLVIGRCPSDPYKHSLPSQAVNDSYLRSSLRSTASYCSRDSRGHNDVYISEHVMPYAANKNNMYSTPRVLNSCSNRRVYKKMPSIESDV

[1] abbreviates: inhibition relative to MK801, read-out: NR2A IC50.

Molecules are shown by their SMILES. Where two headings read alike, the source gives them in different places. A value given as a limit tells only on which side of the number the result lay.

`CN(C)CCNC(=O)c1ccc(CNS(=O)(=O)c2ccc(F)c(Cl)c2)nc1` [6-(3-chloro-4-fluorobenzenesulfon-amidomethyl)-N-[2-(dimethylamino)ethyl] pyridine-3-carboxamide]: the IC50 is 10 µM under setting [1] and > 10 µM (read-out: Binned Activity).
In the same order, the values of `Cc1ncc(CNC(=O)c2ccc(CNS(=O)(=O)c3ccc(Oc4ccccc4)nc3)cn2)s1` [N-[(2-methyl-1,3-thiazol-5-yl)methyl]-5-(6-phenoxypyridine-3-sulfonamidomethyl) pyridine-2-carboxamide] are 10 µM and > 10 µM.
In the same order, the values of `Cc1ncc(CNC(=O)c2ccc(CNS(=O)(=O)c3ccn(C)n3)cn2)s1` [N-[(2-methyl-1,3-thiazol-5-yl)methyl]-5-(1-methyl-1H-pyrazole-3-sulfonamidomethyl) pyridine-2-carboxamide] are 10 µM and > 10 µM.
Regarding `Cc1ccncc1CNC(=O)c1cnc(CNS(=O)(=O)c2ccc(F)c(Cl)c2)cn1` [5-(3-chloro-4-fluorobenzenesulfon-amidomethyl)-N-[(4-methylpyridin-3-yl)methyl]pyrazine-2-carboxamide], the IC50 (read-out: Binned Activity) is 0.1 to 1 µM.
For the compound `Cc1ncc(CNC(=O)c2ccc(CNS(=O)(=O)c3ccc(Cl)nc3Cl)cn2)s1` [5-(2,6-dichloropyridine-3-sulfonamidomethyl)-N-[(2-methyl-1,3-thiazol-5-yl)methyl]pyridine-2-carboxamide], the IC50 under setting [1] came to 10 µM and the IC50 (read-out: Binned Activity) was > 10 µM.
`C[C@@H](NC(=O)c1ccc(CNS(=O)(=O)c2ccc(F)c(Cl)c2)nc1)c1cncs1` [6-(3-chloro-4-fluorobenzenesulfon-amidomethyl)-N-[(1R)-1-(1,3-thiazol-5-yl)ethyl]pyridine-3-carboxamide]: the IC50 under setting [1] came out at 10 µM.
For the compound `COc1cccc(CNC(=O)c2ccc(CNS(=O)(=O)c3ccc(F)c(Cl)c3)nn2)c1` [6-(3-chloro-4-fluorobenzenesulfon-amidomethyl)-N-[(3-methoxyphenyl)methyl] pyridazine-3-carboxamide], the IC50 under setting [1] is 10 µM and the IC50 (read-out: Binned Activity) is > 10 µM.
With `CCc1nc(C(=O)NCc2cnc(C)s2)cnc1CNS(=O)(=O)c1ccc(F)c(Cl)c1` [5-(3-chloro-4-fluorobenzenesulfon-amidomethyl)-6-ethyl-N-[(2-methyl-1,3-thiazol-5-yl)methyl]pyrazine-2-carboxamide], the IC50 (read-out: Binned Activity) is < 0.1 µM.
Take `Cc1ncc(CNC(=O)c2cnc(CNC(=O)c3cc(F)cc(F)c3)cn2)s1` [5-{[(3,5-difluorophenyl)form-amido]methyl}-N-[(2-methyl-1,3-thiazol-5-yl)methyl]pyrazine-2-carboxamide]: the IC50 runs as follows: under setting [1], 10 µM; (read-out: Binned Activity) > 10 µM.
With `Cc1ncc(CNC(=O)c2cnc(CNS(=O)(=O)c3ccc(F)cc3)c(C)n2)s1` [5-(4-fluorobenzenesulfon-amidomethyl)-6-methyl-N-[(2-methyl-1,3-thiazol-5-yl)methyl]pyrazine-2-carboxamide], where the note is “read-out: Binned Activity”, the IC50 lay within 0.1 to 1 µM.
For the compound `O=C(NCc1ncccc1C(F)(F)F)c1ccc(CNS(=O)(=O)c2ccc(F)c(Cl)c2)cn1` [5-(3-chloro-4-fluorobenzenesulfon-amidomethyl)-N-{[3-(trifluoromethyl)pyridin-2-yl]methyl}pyridine-2-carboxamide], the IC50 runs as follows: under setting [1], 10 µM; (read-out: Binned Activity) > 10 µM.
In the same order, the values of `O=C(NCc1cccnc1)c1ncc(CNS(=O)(=O)c2ccc(F)c(Cl)c2)cn1` [5-(3-chloro-4-fluorobenzenesulfon-amidomethyl)-N-(pyridin-3-ylmethyl)pyrimidine-2-carboxamide] are 10 µM and > 10 µM.
Regarding `Cc1ccncc1CNC(=O)c1ccc(CNS(=O)(=O)c2ccc(F)c(Cl)c2)nc1` [6-(3-chloro-4-fluorobenzenesulfon-amidomethyl)-N-[(4-methylpyridin-3-yl)methyl]pyridine-3-carboxamide], the IC50 (read-out: Binned Activity) is 1 to 10 µM.
Still for that read-out and setting: the same measure for `Cc1ncc(CNC(=O)c2ccc(CNS(=O)(=O)c3ccc(F)cc3)cn2)s1` [5-(4-fluorobenzenesulfon-amidomethyl)-N-[(2-methyl-1,3-thiazol-5-yl)methyl]pyridine-2-carboxamide]: 1 to 10 µM.
In the case of `O=C(NCc1ccco1)c1ccc(CNS(=O)(=O)c2ccc(F)c(Cl)c2)cn1` [5-(3-chloro-4-fluorobenzenesulfon-amidomethyl)-N-(furan-2-ylmethyl)pyridine-2-carboxamide], the IC50 under setting [1] stood at 10 µM and the IC50 (read-out: Binned Activity) is > 10 µM.
In the same order, the values of `O=C(NC1CCS(=O)(=O)C1)c1ccc(CNS(=O)(=O)c2ccc(F)c(Cl)c2)nc1` (stereo not shown) [6-(3-chloro-4-fluorobenzenesulfon-amidomethyl)-N-(1,1-dioxo-1λ^6-thiolan-3-yl)pyridine-3-carboxamide] are 10 µM and > 10 µM.
In the same order, the values of `O=C(NCc1ccccn1)c1ccc(CNS(=O)(=O)c2ccc(F)c(Cl)c2)cn1` [5-(3-chloro-4-fluorobenzenesulfon-amidomethyl)-N-(pyridin-2-ylmethyl)pyridine-2-carboxamide] are 10 µM and > 10 µM.
With `Cc1ncc(CNC(=O)c2ccc(CNS(=O)(=O)c3ccc(Cl)c(Cl)c3)cn2)s1` [5-(3,4-dichlorobenzenesulfon-amidomethyl)-N-[(2-methyl-1,3-thiazol-5-yl)methyl]pyridine-2-carboxamide], the IC50 (read-out: Binned Activity) was 1 to 10 µM.
`Cc1ncc(CNC(=O)c2cnc(CNS(=O)(=O)c3ccsc3)cn2)s1` [N-[(2-methyl-1,3-thiazol-5-yl)methyl]-5-(thiophene-3-sulfonamidomethyl) pyrazine-2-carboxamide]: the IC50 reads like this: under setting [1], 10 µM; (read-out: Binned Activity) > 10 µM.
In the same order, the values of `O=C(NCc1ccncc1)c1ccc(CNS(=O)(=O)c2ccc(F)c(Cl)c2)nn1` [6-(3-chloro-4-fluorobenzenesulfon-amidomethyl)-N-(pyridin-4-ylmethyl)pyridazine-3-carboxamide] are 10 µM and > 10 µM.
As for `Cc1ncc(CNC(=O)c2cnc(CNS(=O)(=O)c3ccc(F)c(Cl)c3)c(C(F)(F)F)n2)s1` [5-(3-chloro-4-fluorobenzenesulfon-amidomethyl)-N-[(2-methyl-1,3-thiazol-5-yl)methyl]-6-(trifluoromethyl)pyrazine-2-carboxamide], the IC50 (read-out: Binned Activity) was 0.1 to 1 µM.
Consider `CN(C)CCNC(=O)c1ccc(CNS(=O)(=O)c2ccc(F)c(Cl)c2)cn1` [5-(3-chloro-4-fluorobenzenesulfon-amidomethyl)-N-[2-(dimethylamino)ethyl] pyridine-2-carboxamide], for which the IC50 is, setting by setting: under setting [1], 10 µM; (read-out: Binned Activity) > 10 µM.
In the same order, the values of `Cc1ncc(CNC(=O)c2ccc(CNS(=O)(=O)c3csc4ccccc34)cn2)s1` [5-(1-benzothiophene-3-sulfonamidomethyl)-N-[(2-methyl-1,3-thiazol-5-yl)methyl]pyridine-2-carboxamide] are 10 µM and > 10 µM.
Turning to `Cc1nc(C)c(CNC(=O)c2ccc(CNS(=O)(=O)c3ccc(F)c(Cl)c3)nn2)s1` [6-(3-chloro-4-fluorobenzenesulfon-amidomethyl)-N-[(dimethyl-1,3-thiazol-5-yl)methyl]pyridazine-3-carboxamide], the IC50 runs as follows: under setting [1], 10 µM; (read-out: Binned Activity) > 10 µM.
